The compounds below were run against T1, human 15-lipoxygenase-1 (15-LOX-1) (Homo sapiens, UniProt P16050) (assay: UV absorption assay).
T1 sequence (P16050 2-662): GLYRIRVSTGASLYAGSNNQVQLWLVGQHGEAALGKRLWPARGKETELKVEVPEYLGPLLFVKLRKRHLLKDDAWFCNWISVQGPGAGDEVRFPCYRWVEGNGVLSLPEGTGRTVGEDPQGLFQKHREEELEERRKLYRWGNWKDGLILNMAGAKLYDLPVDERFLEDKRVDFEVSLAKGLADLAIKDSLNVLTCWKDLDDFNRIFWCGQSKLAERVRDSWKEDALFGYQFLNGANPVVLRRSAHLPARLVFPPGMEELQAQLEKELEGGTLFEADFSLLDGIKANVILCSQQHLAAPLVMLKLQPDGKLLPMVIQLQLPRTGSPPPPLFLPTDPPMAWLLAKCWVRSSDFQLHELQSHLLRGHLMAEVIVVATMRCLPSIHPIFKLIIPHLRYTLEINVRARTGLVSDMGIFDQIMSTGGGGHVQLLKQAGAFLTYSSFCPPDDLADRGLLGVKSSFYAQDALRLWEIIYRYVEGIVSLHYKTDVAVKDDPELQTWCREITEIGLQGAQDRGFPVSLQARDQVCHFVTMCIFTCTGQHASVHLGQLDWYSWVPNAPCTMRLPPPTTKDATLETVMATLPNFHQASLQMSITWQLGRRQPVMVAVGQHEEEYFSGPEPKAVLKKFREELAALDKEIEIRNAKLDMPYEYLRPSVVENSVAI
Type: biochemical

Which IC50 does the source give for `CC(C)CCCC(C)CC(=O)NN=Cc1cccnc1` (racemic) [compound 17, 3,7‐Dimethyl‐N′‐[(pyridin‐3‐yl)methylidene]octanehydrazide] here?
Its IC50 is 16 ± 6 µM.

`COc1cc(C=NNC(=O)CC(C)CCCC(C)C)ccc1O` (racemic) [compound 4, N ′‐[(4‐Hydroxy‐3‐methoxyphenyl)methylidene]‐3,7‐dimethyloctanehydrazide] was tested. Which IC50 did it give?
Its IC50 is 42 ± 4 µM.

Which IC50 does the source give for `CC(C)CCCC(C)CC(=O)NN=Cc1cccs1` (racemic) [compound 2, 3,7‐Dimethyl‐N′‐(thiophen‐2‐ylmethylene)octanehydrazide] here?
Its IC50 is 59 ± 7 µM.
